In test [1] the target is T1, recombinant human FLAP protein (Homo sapiens, UniProt P20292).
T1 construct: made in house; host or cells: Sf9 insect cells (membrane fraction, 100,000 x g pellet)
T1 sequence (P20292 1-161): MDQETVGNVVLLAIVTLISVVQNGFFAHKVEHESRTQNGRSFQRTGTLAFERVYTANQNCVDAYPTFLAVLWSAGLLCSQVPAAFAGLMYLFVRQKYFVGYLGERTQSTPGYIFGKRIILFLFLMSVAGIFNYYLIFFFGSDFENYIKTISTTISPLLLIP
Briefly: FLAP binding assay (SPA, displacement of [125I]L-691,831). As to conditions: membranes of sf9 cells expressing human FLAP, [125I]L-691,831 probe; read-out: hFLAP binding IC50. As to the method: Compounds are assessed for the ability to bind to FLAP in a binding assay that measures compound-specific displacement of an iodinated (^125I) FLAP inhibitor via a Scintillation Proximity Assay format (adapted from S. Charleson et al., Mol. Pharmacol., 1992, 41, 873-879).
Cell pellets produced from sf9 insect cells expressing recombinant human FLAP protein are resuspended in buffer A [15 mM Tris-HCl (pH 7.5), 2 mM MgCl2, 0.3 mM EDTA, 1 mM PMSF]. The cells are lysed with a Dounce homogenizer and the material is centrifuged at 10,000×g for 10 minutes. The supernatant is then collected and centrifuged at 100,000×g for 60 minutes. To prepare membrane protein for an assay, an aliquot of the 100,000×g pellet is resuspended in 1 ml of buffer A, Dounce homogenized, and finally subjected to polytron mixing (30 seconds). Membrane protein (25 μl, 5 μg) is mixed with WGA SPA beads (Amersham) and stirred for 1 h. To an assay plate (Perkin Elmer FlexiPlate) is added 25 μl of test compound prepared in Binding buffer [100 mM Tris (pH 7.5), 140 mM NaCl, 5% glycerol, 2 mM EDTA, 0.5 mM TCEP, 0.05% Tween 20], 25 μl of [^125I]L-691,831 (an iodinated analog of MK-591, Charleson et al. Mol. Pharmacol., 41, 873-879, 1992) and finally 50 μl of the bead/protein mixture. (final concentrations: beads, 200 μg/well; protein, 5μg/well; [^125I] probe, 0 08 nM/well(17 nCi/well). The plates are shaken for 2 h before reading on a Microbeta plate reader. Non-specific binding is determined by the addition of 10 μM cold L-691,831 compound.

The test system of test [2] is synthesis of LTB4 in human whole blood. Briefly: Human whole blood LTB4 production inhibition assay. The test is classed as cell-based. Conditions: heparinized human whole blood, calcimycin 20 μM, plasma LTB4; read-out: HuWB IC50. As for the experimental part:
Compounds are additionally tested in a human whole blood assay to determine their ability to inhibit the synthesis of LTB4 in a cellular system. Compounds are combined with heparinized human whole blood and incubated for 15 minutes at 37° C. Calcimycin (20 μM final, prepared in phosphate-buffered saline, pH 7.4) is then added and the mixture is incubated for another 30 minutes at 37° C. The samples are centrifuged for 5 min at low speed (1500×g) and the plasma layer is removed. Plasma LTB4 concentrations are then measured using an antibody-based homogenous time-resolved fluorescence method (CisBio, Bedford, Mass.).

SMILES strings stand for the structures.

On to `Nc1ncc(-c2ccc(C3(C(=O)Nc4ccc5ncsc5c4)CCOCC3)cc2)cn1` [Example 18, 4-[4-(2-aminopyrimidin-5-yl)phenyl]-N-(1,3-benzothiazol-6-yl)tetrahydro-2H-pyran-4-carboxamide], for which the IC50 turned out to be 0.016 µM in test [1] and 1.71 µM in test [2].

As to `CN1CCc2nc(NC(=O)C3(c4ccc(-c5cnc(N)nc5)cc4)CCC3)sc2C1` [Example 234, 1-[4-(2-aminopyrimidin-5-yl)phenyl]-N-(5-methyl-4,5,6,7-tetrahydro[1,3]thiazolo[5,4-c]pyridin-2-yl)cyclobutanecarboxamide], the IC50 came to 0.0325 µM in test [1] and 0.858 µM in test [2].

As to `Nc1ncc(-c2ccc(C3(C(=O)Nc4ccc(Cl)c(F)c4)CCOCC3)cc2)cn1` [Example 66, 4-[4-(2-aminopyrimidin-5-yl)phenyl]-N-(4-chloro-3-fluorophenyl)tetrahydro-2H-pyran-4-carboxamide], the results for the IC50 in test [1] and in test [2] were 0.0119 µM and 1.78 µM, respectively.

Turning to `Nc1ncc(-c2ccc(C3(C(=O)Nc4cc(C(F)(F)F)ccc4N4CCOCC4)CCOCC3)cc2)cn1` [Example 81, 4-[4-(2-aminopyrimidin-5-yl)phenyl]-N-[2-(morpholin-4-yl)-5-(trifluoromethyl)phenyl] tetrahydro-2H-pyran-4-carboxamide], the IC50 was 0.054 µM in test [1] and more than 3 µM in test [2].

As to `COc1ccc(NC(=O)C2(c3ccc(-c4cnc(N)nc4)cc3)CCC2)cn1` [Example 213, 1-[4-(2-aminopyrimidin-5-yl)phenyl]-N-(6-methoxypyridin-3-yl)cyclobutanecarboxamide], the values for the IC50 in test [1] and in test [2] were 0.0126 µM and 0.333 µM, respectively.

For the compound `Nc1ncc(-c2ccc(C3(C(=O)Nc4nc(-c5ccncc5)cs4)CCOCC3)cc2)cn1` [Example 60, 4-[4-(2-aminopyrimidin-5-yl)phenyl]-N-[4-(pyridin-4-yl)-1,3-thiazol-2-yl]tetrahydro-2H-pyran-4-carboxamide], the IC50 in test [1] worked out at 0.0035 µM; in test [2] it was 0.31 µM.

Regarding `Cc1ccc(NC(=O)C2(c3ccc(-c4cnc(N)nc4)cc3)CCC2)nc1` [Example 210, 1-[4-(2-aminopyrimidin-5-yl)phenyl]-N-(5-methylpyridin-2-yl)cyclobutanecarboxamide], the IC50 was 0.0051 µM in test [1] and 0.791 µM in test [2].

Turning to `Cc1nc(-c2ccc(NC(=O)C3(c4ccc(-c5cnc(N)c(C)c5)cc4)CCOCC3)nc2)cs1` [Example 152, 4-[4-(6-amino-5-methylpyridin-3-yl)phenyl]-N-[5-(2-methyl-1,3-thiazol-4-yl)pyridin-2-yl]tetrahydro-2H-pyran-4-carboxamide], the IC50 in test [1] came out at 0.0345 µM; in test [2] it was 0.896 µM.

`COc1cncc(-c2ccc(NC(=O)C3(c4ccc(-c5cnc6[nH]ccc6c5)cc4)CCOCC3)nc2)c1` [Example 167, N-(5'-methoxy-3,3'-bipyridin-6-yl)-4-[4-(1H-pyrrolo[2,3-b]pyridin-5-yl)phenyl]tetrahydro-2H-pyran-4-carboxamide]: the IC50 in test [1] amounted to 0.0047 µM; in test [2] it was 0.353 µM.

With `COc1ccc2nc(NC(=O)C3(c4ccc(-c5cnc(N)nc5)cc4)CCOCC3)sc2c1` [Example 7, 4-[4-(2-aminopyrimidin-5-yl)phenyl]-N-(6-methoxy-1,3-benzothiazol-2-yl)tetrahydro-2H-pyran-4-carboxamide], the values for the IC50 in test [1] and in test [2] were 0.0107 µM and 2.66 µM, respectively.

As for `Nc1ncc(-c2ccc(C3(C(=O)Nc4ccc(C(F)(F)F)cc4)CCOCC3)cc2)cn1` [Example 41, 4-[4-(2-aminopyrimidin-5-yl)phenyl]-N-[4-(trifluoromethyl)phenyl] tetrahydro-2H-pyran-4-carboxamide], the IC50 in test [1] was 0.12 µM; in test [2], more than 3 µM.

`Nc1ncc(-c2ccc(C3(C(=O)Nc4ccncn4)CCC3)cc2)cn1` [Example 185, 1-[4-(2-aminopyrimidin-5-yl)phenyl]-N-(pyrimidin-4-yl)cyclobutanecarboxamide]: the IC50 in test [1] was found to be 0.0175 µM; in test [2] it was 0.955 µM.

On to `Cc1cc(NC(=O)C2(c3ccc(-c4cnc(N)nc4)cc3)CCC2)ccn1` [Example 186, 1-[4-(2-aminopyrimidin-5-yl)phenyl]-N-(2-methylpyridin-4-yl)cyclobutanecarboxamide], for which the IC50 in test [1] is 0.0032 µM; in test [2], 0.335 µM.

As to `Nc1ncc(-c2ccc(C3(C(=O)Nc4ccncc4)CCOCC3)cc2)cn1` [Example 155, 4-[4-(2-aminopyrimidin-5-yl)phenyl]-N-(pyridin-4-yl)tetrahydro-2H-pyran-4-carboxamide], the IC50 in test [1] came to 0.136 µM; in test [2], 0.857 µM.

Turning to `Cc1nc(-c2ccc(NC(=O)C3(c4ccc(-c5cnc(N)nc5)cn4)CCOCC3)nc2)cs1` [Example 128, 4-[5-(2-aminopyrimidin-5-yl)pyridin-2-yl]-N-[5-(2-methyl-1,3-thiazol-4-yl)pyridin-2-yl]tetrahydro-2H-pyran-4-carboxamide], the IC50 in test [1] was found to be 0.14 µM; in test [2], 0.815 µM.

For `Nc1ncc(-c2ccc(C3(C(=O)Nc4nc(-c5ccccn5)cs4)CCOCC3)cc2)cn1` [Example 59, 4-[4-(2-aminopyrimidin-5-yl)phenyl]-N-[4-(pyridin-2-yl)-1,3-thiazol-2-yl]tetrahydro-2H-pyran-4-carboxamide], the IC50 in test [1] is 0.0126 µM; in test [2], more than 3 µM.

Consider `Nc1ncc(-c2ccc(C3(C(=O)Nc4nc(-c5ccccc5)ns4)CCOCC3)cc2)cn1` [Example 36, 4-[4-(2-aminopyrimidin-5-yl)phenyl]-N-(3-phenyl-1,2,4-thiadiazol-5-yl)tetrahydro-2H-pyran-4-carboxamide], for which the IC50 in test [1] is 0.0133 µM; in test [2], more than 3 µM.

As for `CNc1ncc(-c2ccc(C3(C(=O)Nc4ccc(-c5csc(C)n5)cn4)CCOCC3)cc2)cn1` [Example 193, 4-{4-[2-(methylamino)pyrimidin-5-yl]phenyl}-N-[5-(2-methyl-1,3-thiazol-4-yl)pyridin-2-yl]tetrahydro-2H-pyran-4-carboxamide], the values for the IC50 in test [1] and in test [2] were 0.0101 µM and 1.65 µM, respectively.

Turning to `Nc1ncc(-c2ccc(C3(C(=O)Nc4ccc(-c5cccnc5)cc4)CCOCC3)cc2)cn1` [Example 45, 4-[4-(2-aminopyrimidin-5-yl)phenyl]-N-[4-(pyridin-3-yl)phenyl]tetrahydro-2H-pyran-4-carboxamide], the IC50 in test [1] is 0.0062 µM; in test [2], 0.459 µM.

`CS(=O)(=O)c1ccc(NC(=O)C2(c3ccc(-c4cnc(N)nc4)nc3)CCC2)cc1` [Example 99, 1-[6-(2-aminopyrimidin-5-yl)pyridin-3-yl]-N-[4-(methylsulfonyl)phenyl]cyclobutane-carboxamide]: the IC50 turned out to be 0.0455 µM in test [1] and 0.57 µM in test [2].

`Nc1ncc(-c2ccc(C3(C(=O)Nc4ccc(-c5cn[nH]c5)cn4)CCC3)cc2)cn1` [Example 104, 1-[4-(2-aminopyrimidin-5-yl)phenyl]-N-[5-(1H-pyrazol-4-yl)pyridin-2-yl]cyclobutanecarboxamide]: the figures for the IC50 in test [1] and in test [2] were 0.00195 µM and 0.155 µM, respectively.

Regarding `Nc1ncc(-c2ccc(C3(C(=O)Nc4nc(-c5cccnc5)cs4)CCC3)cc2)cn1` [Example 253, 1-[4-(2-aminopyrimidin-5-yl)phenyl]-N-[4-(pyridin-3-yl)-1,3-thiazol-2-yl]cyclobutanecarboxamide], the IC50 in test [1] stood at 0.0018 µM; in test [2], 0.271 µM.

What is called IC50 is the concentration needed to halve the response being measured.

The record behind these values is patent US9073895B2 (Boehringer Ingelheim International GmbH, priority 2010, dated 2015).
